According to PubChem BioAssay (NCI):
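Dose response: 5 concentrations. Exposure: 48 h. Format: 96-well plates. Endpoint: linear interpolation; highest concentration if not reached. Abbreviation: GI50, concentration required for 50% inhibition of growth. TGI marks complete inhibition of growth.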

Legend:
Assay in all cases: growth of human tumour cells (NCI), 48 h
KM12 colon = system: KM12 colon
MDA-MB-231 breast = system: MDA-MB-231 breast
T-47D breast = system: T-47D breast
OVCAR-3 ovarian = system: OVCAR-3 ovarian
OVCAR-5 ovarian = system: OVCAR-5 ovarian
IGROV1 ovarian = system: IGROV1 ovarian
RXF 393 renal = system: RXF 393 renal
NCI/ADR-RES ovarian = system: NCI/ADR-RES ovarian
NCI-H522 lung = system: NCI-H522 lung
MCF7 breast = system: MCF7 breast
CCRF-CEM leukemia = system: CCRF-CEM leukemia
SK-MEL-2 melanoma = system: SK-MEL-2 melanoma
CAKI-1 renal = system: CAKI-1 renal
DU-145 prostate = system: DU-145 prostate
U251 CNS = system: U251 CNS
TK-10 renal = system: TK-10 renal
SN12C renal = system: SN12C renal
UACC-62 melanoma = system: UACC-62 melanoma
K-562 leukemia = system: K-562 leukemia
SF-295 CNS = system: SF-295 CNS
MOLT-4 leukemia = system: MOLT-4 leukemia
RPMI-8226 leukemia = system: RPMI-8226 leukemia
PC-3 prostate = system: PC-3 prostate
SNB-75 CNS = system: SNB-75 CNS
EKVX NSCLC = system: EKVX NSCLC
HT29 colon = system: HT29 colon
NCI-H226 lung = system: NCI-H226 lung
HCT-116 colon = system: HCT-116 colon
LOX IMVI melanoma = system: LOX IMVI melanoma
SW-620 colon = system: SW-620 colon
SF-268 CNS = system: SF-268 CNS
SNB-19 CNS = system: SNB-19 CNS
A498 renal = system: A498 renal
HOP-92 NSCLC = system: HOP-92 NSCLC
HCC-2998 colon = system: HCC-2998 colon
COLO 205 colon = system: COLO 205 colon
A549 NSCLC = system: A549 NSCLC
M14 melanoma = system: M14 melanoma
BT-549 breast = system: BT-549 breast
SK-MEL-28 melanoma = system: SK-MEL-28 melanoma
UACC-257 melanoma = system: UACC-257 melanoma
786-0 renal = system: 786-0 renal
MDA-MB-468 breast = system: MDA-MB-468 breast
HOP-62 NSCLC = system: HOP-62 NSCLC
SF-539 CNS = system: SF-539 CNS
ACHN renal = system: ACHN renal
HCT-15 colon = system: HCT-15 colon
UO-31 renal = system: UO-31 renal
MDA-MB-435 = system: MDA-MB-435
NCI-H460 lung = system: NCI-H460 lung
MALME-3M melanoma = system: MALME-3M melanoma
HS 578T breast = system: HS 578T breast
NCI-H23 lung = system: NCI-H23 lung
SK-MEL-5 melanoma = system: SK-MEL-5 melanoma
HL-60(TB) leukemia = system: HL-60(TB) leukemia
SR leukemia = system: SR leukemia
OVCAR-8 ovarian = system: OVCAR-8 ovarian
SK-OV-3 ovarian = system: SK-OV-3 ovarian
OVCAR-4 ovarian = system: OVCAR-4 ovarian

O=C(CNc1nc(-c2ccccc2)cs1)Nc1cccc(Cl)c1
GI50 (KM12 colon): 6.33 µM
TGI (KM12 colon): 22.5 µM
GI50 (MDA-MB-231 breast): 4.03 µM
TGI (MDA-MB-231 breast): 17.8 µM
GI50 (T-47D breast): 6.04 µM
TGI (T-47D breast): 22.6 µM
GI50 (OVCAR-3 ovarian): 7.14 µM
TGI (OVCAR-3 ovarian): 21.5 µM
GI50 (OVCAR-5 ovarian): 13 µM
TGI (OVCAR-5 ovarian): 25.7 µM
GI50 (IGROV1 ovarian): 5.27 µM
TGI (IGROV1 ovarian): 21.5 µM
GI50 (RXF 393 renal): 5.39 µM
TGI (RXF 393 renal): 18.4 µM
GI50 (NCI/ADR-RES ovarian): 6.39 µM
TGI (NCI/ADR-RES ovarian): 45.3 µM
GI50 (NCI-H522 lung): 4.01 µM
TGI (NCI-H522 lung): 16.1 µM
GI50 (MCF7 breast): 5.42 µM
TGI (MCF7 breast): 18.3 µM
GI50 (CCRF-CEM leukemia): 3.76 µM
TGI (CCRF-CEM leukemia): > 100 µM
GI50 (SK-MEL-2 melanoma): 11.8 µM
TGI (SK-MEL-2 melanoma): 26 µM
GI50 (CAKI-1 renal): 3.13 µM
TGI (CAKI-1 renal): 42.9 µM
GI50 (DU-145 prostate): 15.2 µM
TGI (DU-145 prostate): 37.2 µM
GI50 (U251 CNS): 5.15 µM
TGI (U251 CNS): 19.5 µM
GI50 (TK-10 renal): 14.9 µM
TGI (TK-10 renal): 29.7 µM
GI50 (SN12C renal): 6.3 µM
TGI (SN12C renal): 20.7 µM
GI50 (UACC-62 melanoma): 3.33 µM
TGI (UACC-62 melanoma): 16.6 µM
GI50 (K-562 leukemia): 3.84 µM
TGI (K-562 leukemia): 26 µM
GI50 (SF-295 CNS): 5.13 µM
TGI (SF-295 CNS): 18.1 µM
GI50 (MOLT-4 leukemia): 3.22 µM
TGI (MOLT-4 leukemia): 15.9 µM
GI50 (RPMI-8226 leukemia): 4.61 µM
TGI (RPMI-8226 leukemia): > 100 µM
GI50 (PC-3 prostate): 2.86 µM
TGI (PC-3 prostate): 37.6 µM
GI50 (SNB-75 CNS): 3.22 µM
TGI (SNB-75 CNS): 19.7 µM
GI50 (EKVX NSCLC): 3.59 µM
TGI (EKVX NSCLC): 15.3 µM
GI50 (HT29 colon): 10.1 µM
TGI (HT29 colon): 24 µM
GI50 (NCI-H226 lung): 10.1 µM
TGI (NCI-H226 lung): 45.4 µM
GI50 (HCT-116 colon): 4.99 µM
TGI (HCT-116 colon): 34.1 µM
GI50 (LOX IMVI melanoma): 3.31 µM
TGI (LOX IMVI melanoma): 16.4 µM
GI50 (SW-620 colon): 12.1 µM
TGI (SW-620 colon): 30.3 µM
GI50 (SF-268 CNS): 7.45 µM
TGI (SF-268 CNS): 52.3 µM
GI50 (SNB-19 CNS): 11 µM
TGI (SNB-19 CNS): 28 µM
GI50 (A498 renal): 11.5 µM
TGI (A498 renal): 33.5 µM
GI50 (HOP-92 NSCLC): 2.37 µM
TGI (HOP-92 NSCLC): 15.1 µM
GI50 (HCC-2998 colon): 11.2 µM
TGI (HCC-2998 colon): 23.2 µM
GI50 (COLO 205 colon): 15.6 µM
TGI (COLO 205 colon): 36.5 µM
GI50 (A549 NSCLC): 9.22 µM
TGI (A549 NSCLC): 62.4 µM
GI50 (M14 melanoma): 10.4 µM
TGI (M14 melanoma): 42.3 µM
GI50 (BT-549 breast): 4.82 µM
TGI (BT-549 breast): 19 µM
GI50 (SK-MEL-28 melanoma): 13 µM
TGI (SK-MEL-28 melanoma): 25.9 µM
GI50 (UACC-257 melanoma): 13 µM
TGI (UACC-257 melanoma): 26.9 µM
GI50 (786-0 renal): 13.1 µM
TGI (786-0 renal): 38.3 µM
GI50 (MDA-MB-468 breast): 4.01 µM
TGI (MDA-MB-468 breast): 13.5 µM
GI50 (HOP-62 NSCLC): 12.6 µM
TGI (HOP-62 NSCLC): 36 µM
GI50 (SF-539 CNS): 11.2 µM
TGI (SF-539 CNS): 23.3 µM
GI50 (ACHN renal): 6.57 µM
TGI (ACHN renal): 19.8 µM
GI50 (HCT-15 colon): 4.49 µM
TGI (HCT-15 colon): 16.1 µM
GI50 (UO-31 renal): 2.41 µM
TGI (UO-31 renal): 14.8 µM
GI50 (MDA-MB-435): 12.5 µM
TGI (MDA-MB-435): 33.5 µM
GI50 (NCI-H460 lung): 10.1 µM
TGI (NCI-H460 lung): 28.6 µM
GI50 (MALME-3M melanoma): 15 µM
TGI (MALME-3M melanoma): 28.3 µM
GI50 (HS 578T breast): 7.94 µM
TGI (HS 578T breast): > 100 µM
GI50 (NCI-H23 lung): 9.24 µM
TGI (NCI-H23 lung): 22.8 µM
GI50 (SK-MEL-5 melanoma): 7.04 µM
TGI (SK-MEL-5 melanoma): 19.8 µM
GI50 (HL-60(TB) leukemia): 3.53 µM
TGI (HL-60(TB) leukemia): 23.1 µM
GI50 (SR leukemia): 3.94 µM
TGI (SR leukemia): > 100 µM
GI50 (OVCAR-8 ovarian): 7.2 µM
TGI (OVCAR-8 ovarian): 74.6 µM
GI50 (SK-OV-3 ovarian): 14.1 µM
TGI (SK-OV-3 ovarian): 44.9 µM
GI50 (OVCAR-4 ovarian): 6.4 µM
TGI (OVCAR-4 ovarian): 20.9 µM
